One compound from US7098241B2, “Thiophene hydroxamic acid derivatives” (Hoffmann-La Roche Inc., priority 2002, dated 2006) can be followed below.

Test [1] has as its system HCT116 tumor cells (human colon adenocarcinoma) xenograft. The test is described as follows: Antitumor activity in a HCT116 xenograft model. Format: in vivo, NMRI nude male mice. The settings on record: 21 dosing days over 29 days. How it is done:
Determination of Antitumor Activity in a HCT116 Xenograft Model
The HCT116 cell line (NCI line) is derived from a human colon adenocarcinoma and kept in an in house working cell bank. Cells were cultured in RPMI1640/2 mM L-glutamin medium supplemented with 10% heat inactivated FCS. For inoculation HCT116 tumor cells are removed (trypsin-EDTA, 50 U/mg) from culture flasks and transferred into culture medium (RPMI 1640, 10% heat inactivated FCS), washed and resuspended in sterile PBS to achieve a final cell concentration of 5×10^6/100 μl. Cell suspension was carefully mixed by regular shaking to avoid cell aggregation and filled into a 1.0 ml graded syringe. Tumor cell inoculation was performed under light anesthesia (Ethrane.) in the upper ventral quarter of right flank, i.e. between axilla of forelegs and midline region of NMRI nude male mice. In this site 5×10^6 HCT116 tumor cells were s.c. discharged in a volume of 100 μl PBS. All procedures were carried out under SPF conditions wearing appropriate clothings. After s.c. inoculation of tumor cells, measurable tumors developed in all animals. Mice were staged and randomized on day 10 according to the primary tumor dimensions. 21 days daily oral dosing was carried out using the compound of example 1 and compound 3 of WO 93/07148, WO 95/31977, U.S. Pat. No. 5,369,108 ('108 patent) as test article. 75 male NMRI nude mice were divided into 5 study groups. Each group consisted of 15 male animals. The individual groups were given the test article, formulated as microsuspensions in 7.5% modified gelatin with 0.22% NaCl solution, once daily by oral route over 29 days according to the following treatment scheme: 3 days treatment, 2 days drug holiday, 5 days treatment, 2 days drug holiday, 5 days treatment, 2 days drug holiday, 5 days treatment, 2 days drug holiday, 3 days treatment. The application volume was 10 ml/kg. The oral doses chosen were 50, 100, and 200 mg/kg of the compound of example 1 and 200 mg/kg of compound 3 of the '108 patent.

Test [2] concerns PC-3 prostate carcinoma cells xenograft. The test is described as follows: Antitumor activity in a PC-3 xenograft model. Format: in vivo, NMRI nude mice. The conditions noted are these: 15 days of treatment over 19 days, vs vehicle group. How it is done:
Determination of Antitumor Activity in a PC-3 Xenograft Model
PC-3 prostate carcinoma cells were originally obtained from the NCI collection and were deposited after expansion in the Roche cell bank Penzberg. Tumor cell line was routinely cultured in RPMI 1640 Medium containing 10% FBS and 2 mM L-glutamine at 37° C. in a water-saturated atmosphere at 5% CO2. Culture passage was performed with trypsin/EDTA 1× (Roche Diagnostics) splitting twice a week. Cell passage 3 was used in the present study.
At the day of cell injection, cells were harvested from culture flasks (Greiner T 75), transferred into 50 ml culture medium, washed once and resuspended in PBS. After an additional washing with PBS, the final cell titer was measured with a Neubauer-Chamber. The tumor cell suspension (PBS) was vortexed carefully (to reduce cell aggregation) and kept on ice. The cell suspension was filled into a 1.0 ml syringe. To generate primary tumors, 2×10^6 PC-3 tumor cells in a volume of 100 μl PBS were injected subcutaneously into the right flank of each mouse (NMRI nude mice). After s.c. inoculation of tumor cells, measurable tumors developed in all animals. Mice were staged and randomized on day 10 according to the primary tumor dimensions. 15 days daily oral dosing was carried out using the compound of example 1 and compound 3 of WO 93/07148, WO 95/31977, U.S. Pat. No. 5,369,108 as test article. 90 male NMRI nude mice were divided into 6 study groups. Each group consisted of 15 male animals. The individual groups were given the test article, formulated as microsuspensions in 7.5% modified gelatin with 0.22% NaCl solution, once daily by oral route over 19 days (3 cycles of 5 days treatment and a 2-day drug free period each). The application volume was 10 ml/kg. The oral doses chosen were 25, 50, 100, and 200 mg/kg of example 1 and 200 mg/kg of compound 3 of patent '108. The study was terminated on day 28 after tumor cell injection when the vehicle group reached the termination criteria.

With `C[C@@H](NC(=O)c1ccc(C(=O)NO)s1)c1ccccc1` [Example 1, (R)-thiophene-2,5-dicarboxylic acid 2-hydroxyamide 5-[(1-phenyl-ethyl)-amide]], the tumor weight inhibition in test [1] (50 mg/kg oral once daily) is reported as 40%; in test [1] (100 mg/kg oral once daily), 49%; in test [1] (200 mg/kg oral once daily), 87%; in test [2] (25 mg/kg oral once daily), 15%; in test [2] (50 mg/kg oral once daily) it was 36%; in test [2] (100 mg/kg oral once daily) it was 51%. Moreover, the tumor weight inhibition in test [2] (200 mg/kg oral once daily) is listed as 81%.
